Measured values reported in patent US10149907B2, “Combinations of a photosensitizer with a hydrogen sulfide donor, thioredoxin inhibitor or nitroxide for use in photodynamic therapy” (UNIVERSITY OF EXETER, priority 2014, dated 2018).
Entries after “also recorded” stand apart in the source; their conditions may differ. Where two headings read alike, the source gives them in different places.

Legend:
[1] = tested on: A431 cells; assay: cells; assay type: cell-based; conditions: for effect on photodynamic cell killing compared to MAL and irradiation only / modes of cell death (early apoptosis, late apoptosis, necrosis): 1 mM MAL + SRHD 1 μM + irradiation; for modes of cell death (early apoptosis, late apoptosis, necrosis): compared to MAL and irradiation, FIG. 2, 4
Procedure: A431 cells (human epithelial squamous cell carcinoma cells) were seeded at a density of 1×10^6 cells/ml in T12.5 cm^2 flasks and incubated under 2% O2 for 48 h prior to treatment. After 24 h, the culture medium was replaced and the cells were placed back into the incubators under 2% O2. Following this incubation period, the culture medium was then removed and the flasks were washed with PBS. The cells were then treated with one of the SRHDs and incubated at 2% O2 for 2 h, after which MAL was added to a final concentration of 1 mM and the cells were incubated at 2% O2 for 3 h. This meant in total, the cells were treated with the SRHDs for 5 h.
Following this final incubation, cell death was analysed by annexin V-FITC and propidium iodide staining in conjunction with flow cytometry.
(§1) Cell death analysis by flow cytometry was carried out using the annexin V-FITC/propidium iodide protocol. This protocol allows a quantitative assessment of cell death, particularly specific modes of death, and involves staining the cells with fluorescein isothiocyanate-conjugated annexin A5 (annexin V-FITC) and propidium iodide (PI). Positive staining with annexin V-FITC alone indicates an apoptotic cell; positive staining with PI alone indicates a necrotic cell and dual staining of both annexin V and PI indicates a “late apoptotic” cell.
From each flask being assessed, the old medium was removed and placed into a corresponding individual 15 ml Falcon tube in order to collect any cells that may have detached from the surface. The flask was washed once with 1 ml PBS; also deposited in the Falcon tubes. Trypsin (500 μl) was added to each flask and the flasks were returned to the incubator with their caps loosened. Cell detachment was monitored using an inverted light microscope, until 50% of the cells were detached. The flasks were then lightly tapped to detach the remainder of the cells. Medium (2 ml) was added to each flask in order to neutralise the trypsin present before being removed and dispensed into the Falcon tubes. One more wash with PBS was carried out in order to ensure any cells left in the flasks were collected. The Falcon tubes were then centrifuged at 490 g for 3 min, forming a pellet at the bottom of the tube. The supernatant was discarded, and the cells were re-suspended in 5 ml of PBS, in order to wash them, before being centrifuged again at 490 g for 3 min. […] The Falcon tubes were placed on ice and in the dark for 15 min to allow annexin V staining. […] The samples were then ready to be assessed by flow cytometry.
(§2) The following flow cytometry process of sample detection was used. When using annexin V-FITC and PI, the detectors being used were FL1 (λmax=520 nm) and FL3 (λmax=670 nm), respectively, each with their own logarithmic histogram generated by the software. The intensity of the fluorescence detected is measured on a logarithmic scale on the x-axis and the y-axis represents the number of cells detected at a given fluorescence intensity. A plot of FL1/FL3 produces a 4-quadrant graph, where unstained and untreated cells are located in the bottom left quadrant, representing any cells found in the 1st decade of the single plot logarithmic histograms. Single staining with annexin V-FITC and PI are located in the bottom right and top left quadrant, respectively, and dual staining is located in the top right quadrant. These quadrants represent any cells detected above the 1st decade of the logarithmic histograms.

[2] = tested on: A431 cells; conditions: for cell viability, percentage of untreated control: 500 μM
Procedure: A431 cells were seeded at a density of 1×10^5 cells/ml in 96 well plates and incubated under 2% O2 for 48 h prior to treatment. After 24 h, the culture medium was replaced and the cells were placed back into the incubators under 2% O2. Following this incubation period, the culture medium was then removed and the plates were washed with PBS. The cells were then treated with 1 mM MAL in the absence or presence of one of the compounds of interest and then incubated again at 2% O2 for 3 h. For experiments carried out with SRHDs, this treatment step was carried out for 5 h at 2% O2. After treatment, the cells were washed with PBS, the culture medium was replaced and the cells were placed back under 2% O2 for 3 h. Following this final incubation, cell death was analysed using the resazurin viability assay.
Resazurin (7-hydroxy-3H-phenoxazin-3-one 0-oxide) is a weakly fluorescent blue dye used primarily in oxidation-reduction cell viability assays. Irreversible NADH-dependent reduction by the mitochondria in mammalian cells leads to the production of resorufin, a highly fluorescent product with excitation at 571 nm, emission at 585 nm.
A431 cells were seeded into 96 well plates at a density of 1.5*10^6 cells per ml (200 μl per well, 3*10^5 cells) and incubated for 24 h to adhere. Following incubation, the cells were washed and treated with the compound of interest for the relevant time, and then washed with PBS. […] After a 2 h incubation, the fluorescence of each well was measured (excitation: 571 nm, emission: 585 nm) using a fluorescence plate reader. Data from these experiments was plotted as a percentage of cell viability compared to untreated control cells.

[3] = tested on: A431 cells; assay: Photodynamic cell killing in the presence of inhibitors of the thioredoxin antioxidant system or nitroxides (annexin V-FITC/propidium iodide flow cytometry); assay type: cell-based, human; conditions: for cell death: 3 h, irradiation
Procedure: After this treatment, the cells were irradiated for 5 min (630 nm, 25 J/cm^2), then washed with PBS and the culture medium was replaced, after which the cells were placed back under 2% O2 and incubated for a further 3 h. Following this final incubation, cell death was analysed by annexin V-FITC and propidium iodide staining in conjunction with flow cytometry.
as §1
From each flask being assessed, the old medium was removed and placed into a corresponding individual 15 ml Falcon tube in order to collect any cells that may have detached from the surface. The flask was washed once with 1 ml PBS; also deposited in the Falcon tubes. Trypsin (500 μl) was added to each flask and the flasks were returned to the incubator with their caps loosened. Cell detachment was monitored using an inverted light microscope, until 50% of the cells were detached. The flasks were then lightly tapped to detach the remainder of the cells. Medium (2 ml) was added to each flask in order to neutralise the trypsin present before being removed and dispensed into the Falcon tubes. One more wash with PBS was carried out in order to ensure any cells left in the flasks were collected. The Falcon tubes were then centrifuged at 490 g for 3 min, forming a pellet at the bottom of the tube. The supernatant was discarded, and the cells were re-suspended in 5 ml of PBS, in order to wash them, before being centrifuged again at 490 g for 3 min. The wash stage was carried out once more before re-suspending the cell pellet in 95 μl of ice cold calcium (Ca^2+) buffer (50 mM HEPES, 700 mM NaCl, 12.5 mM CaCl2, pH 7.4) and adding 5 μl 12.5 μg/ml of annexin V-FITC (final concentration, 1.25 μg/ml), under reduced light conditions to prevent bleaching of the FITC. The Falcon tubes were placed on ice and in the dark for 15 min to allow annexin V staining. After 15 min, 860 μl of Ca^2+ buffer (10 mM Hepes adjusted to pH 7.4, 140 mM NaCl and 2.5 mM CaCl2) was added, followed by 40 μl of 1 mg/ml PI in water (final concentration, 0.04 mg/ml) to give a final volume of 1 ml. The samples were then ready to be assessed by flow cytometry.
as §2

[4] = tested on: A431 cells; assay: Mitochondrial reactive oxygen species generation during photodynamic irradiation, MitoSOX flow cytometry; assay type: cell-based, human; conditions: 3 hours, irradiated
Procedure: A431 cells were treated concurrently with AP39-C10 (10, 100 or 1000 nM) for 5 hours, MAL (1 mM) for 3 hours and MitoSOX (2.5 μM) for 1 hour, after which they were irradiated for 5 min (630 nm, 25 J/cm^2) and MitoSOX (mito-2-OH-E^+) fluorescence, indicative of mitochondrial oxidant production, was immediately analysed by flow cytometry. Results are set out in FIG. 23.
Mitochondria-targeted dihydroethidium (i.e. MitoSOX) was used to assess the production of mitochondrial reactive oxygen species (ROS) by PpIX photochemical reactions and to determine the effects of AP39-C10 on this process. All of the results are represented as a percentage of the untreated controls (100.0±8.5%). The fluorescence of the photoirradiated cells, which had been pre-treated with MAL, was 193.7±7.3% (p<0.001 c.f. untreated controls).

[5] = 1 mM MAL + SRHD 1 μM (5 h) + irradiation, 3 h post-irradiation
[6] = dark toxicity, without irradiation, SRHD 1 μM, 5 h, FIG. 1, 3

Compound	cell death [1, 5] [%]	modes of cell death (early apoptosis, late apoptosis, necrosis) [1]	cell viability, percentage of untreated control ([2]; 5 hours, FIG. 15, 16) [%]	cell death [1, 6] [%]	also measured
NC(=S)c1ccc(O)cc1 [4-HTB, 4-hydroxythiobenzamide]	22.5±5.5	no effect on the types of cell death observed compared to treatment with MAL and irradiation	–	–	effect on photodynamic cell killing compared to MAL and irradiation only [1]: no statistically significant effect on photodynamic cell killing; concentration up to which treatment was well tolerated ([2]; 5 hours, range 0.1-500 μM): up to 500 μM
Oc1ccc(-c2cc(=S)ss2)cc1 [ADT-OH, 5-(4-hydroxyphenyl)-3H-1,2-dithiole-3-thione]	25.7±6	no effect on the types of cell death observed compared to treatment with MAL and irradiation	76.7±1.3	–	effect on photodynamic cell killing compared to MAL and irradiation only [1]: no statistically significant effect on photodynamic cell killing
O=C(CCCCCCC[P+](c1ccccc1)(c1ccccc1)c1ccccc1)Oc1ccc(-c2cc(=S)ss2)cc1 [AP39-C8]	46.3±2.1	–	20.1±4.5	14.9±2.3	–
O=C(CCCCCCCCCCC[P+](c1ccccc1)(c1ccccc1)c1ccccc1)Oc1ccc(-c2cc(=S)ss2)cc1 [AP39-C12]	51.6±3.2	–	13.3±1.8	11.7±1.5	–
NC(=S)c1ccc(OC(=O)CCCCCCC[P+](c2ccccc2)(c2ccccc2)c2ccccc2)cc1 [AP123-C8]	67.5±6.4	–	13.2±1.8	13.2±3.1	–
NC(=S)c1ccc(OC(=O)CCCCCCCCCCC[P+](c2ccccc2)(c2ccccc2)c2ccccc2)cc1 [AP123-C12]	72.5±2.0	less effect on early apoptosis, instead increasing late apoptosis and necrosis	17.0±0.7	12.7±3.0	–
CCC(C)SSc1ncc[nH]1 (stereo not drawn) [PX12, 2-[(1-Methylpropyl)dithio]-1H-imidazole]	–	–	–	–	cell death ([3]; 1 mM MAL + co-treatment 10 μM): 70.5±4.5%; potentiating effect on MAL photodynamic cell killing ([3]; summary of Examples 2A, 3A): more robust potentiating effect; cell viability, percentage of untreated control ([2]; 24 hours): 47.5±4.9%; concentration up to which well tolerated / no cytotoxicity ([2]; 24 hours): ≤ 100 µM; MitoSOX fluorescence, percentage of untreated cells ([4]; MAL 1 mM + co-treatment 10 μM): 211.4±17.6%
CC[PH](CC)(CC)[Au][S][C@@H]1O[C@H](COC(C)=O)[C@@H](OC(C)=O)[C@H](OC(C)=O)[C@H]1OC(C)=O [auranofin]	–	–	–	–	modes of cell death [3]: primarily increased necrotic cell death; also recorded: slightly increased late apoptotic cell death; also recorded: concentration-dependent increases in late apoptosis and necrosis, with little effect on early apoptosis; potentiating effect on MAL photodynamic cell killing [3]: more robust potentiating effect; concentration up to which well tolerated / no cytotoxicity ([2]; human): ≤ 10 µM
aurothiomalate [ATM]	–	–	–	–	cell death ([3]; 1 mM MAL + co-treatment 20 μM): 66.7±4.9%; potentiating effect on MAL photodynamic cell killing ([3]; summary of Examples 2A, 3A): more robust potentiating effect; tolerance (dark toxicity) ([2]; 0.1-500 μM, 24 hours): well tolerated at all concentrations tested; MitoSOX fluorescence, percentage of untreated cells ([4]; MAL 1 mM + co-treatment 20 μM): 192.4±5.6%
